Structures are written as SMILES. pIC50: −log10 of the molar value.

The term pIC50 denotes the IC50 on a negative log10 scale, so that one unit is a factor of ten.

Test [1] has as its system HT-29. The test is described as follows: Antiproliferative activity against human HT-29 cells assessed as inhibition of cell growth by first round CCK8 assay. Format: functional, cell-based.
In test [2] the test system is A549. Nature of the test: Antiproliferative activity against human A549 cells assessed as inhibition of cell growth by first round CCK8 assay. Format: functional, cell-based.
The test system of test [3] is A549. The test is described as follows: Antiproliferative activity against human A549 cells assessed as inhibition of cell growth by secondary round CCK8 assay. Format: functional, cell-based. On the technique in general: Tetrazolium assays rely on reduction of a dye to a coloured formazan, in cell work by metabolically active cells.
The target of the next test is Tubulin. Nature of the test: Inhibition of tubulin polymerization (unknown origin). Format: protein-complex assay, Homo sapiens.
Test [4] concerns HepG2. Nature of the test: Antiproliferative activity against human HepG2 cells assessed as inhibition of cell growth by secondary round CCK8 assay. Format: functional, cell-based.
Test [5] deals with HepG2. Nature of the test: Antiproliferative activity against human HepG2 cells assessed as inhibition of cell growth by first round CCK8 assay. Format: functional, cell-based.
For test [6], the system named is HT-29. Nature of the test: Antiproliferative activity against human HT-29 cells assessed as inhibition of cell growth by secondary round CCK8 assay.

For the compound `C/C=C\CC(C/C=C\NC(=O)[C@@H](NC(=O)\C=C/C=C\C(C)=C\[C@H](C)[C@@H]1CC=C(OC)C(=O)O1)C(C)(C)C)OC(N)=O` (some centres not stated), the pIC50 is 9.57 with HT-29 [1]; 9.14 in the test on A549 [2]; more than 9.70 in the test with A549 [3]; 5.51 against Tubulin; 9.44 in the test on HepG2 [4]; 8.79 with HepG2 [5]. For the same compound, the pIC50 in the test on HT-29 [6] was more than 9.70.
On to `COC1=CC[C@@H]([C@@H](C)/C=C(C)/C=C\C=C/C(=O)N[C@H](C(=O)N/C=C\CCOC(N)=O)C(C)(C)C)OC1=O`, for which the results for the pIC50 in the test on HT-29 [1], in the test on A549 [2] and in the test with HepG2 [5] were 8.96, 8.62 and 8.24, respectively.
`COC1=CC[C@@H]([C@@H](C)/C=C(C)/C=C\C=C/C(=O)N[C@H](C(=O)N/C=C(/C)CCOC(N)=O)C(C)(C)C)OC1=O` had a pIC50 at Tubulin of 4.80.
With `CC(=O)O[C@H]1C(=O)[C@@]2(C)[C@H]([C@H](OC(=O)c3ccccc3)[C@]3(O)C[C@H](OC(=O)[C@H](O)[C@@H](NC(=O)c4ccccc4)c4ccccc4)C(C)=C1C3(C)C)[C@]1(OC(C)=O)CO[C@@H]1C[C@@H]2O` [PACLITAXEL], the pIC50 in the test with HepG2 [4] was 8.00.
